# What was measured:
# [1] = log P by HPLC (OECD Guideline 117), method [b] neutral range; format: physicochemical; details: HPLC; for logP[b]: method [b] neutral range
# Method: (§1) The log P values were determined analogously to OECD Guideline 117 (EC Directive 92/69/EEC) by HPLC (high-performance liquid chromatography) using reversed-phase columns (C 18), by the following methods:
# [b] The LC-MS determination in the neutral range is effected at pH 7.8 with 0.001 molar aqueous ammonium hydrogencarbonate solution and acetonitrile as eluents; linear gradient from 10% acetonitrile to 95% acetonitrile.
# [2] = tested on: Meloidogyne incognita; assay: Meloidogyne incognita test (MELGIN); format: in vivo; details: application rate of 20 ppm; after 14 days, by formation of galls
# Method: Meloidogyne Incognita Test (MELGIN)
# • Solvent: 125.0 parts by weight of acetone
# To produce an appropriate active ingredient formulation, 1 part by weight of active ingredient is mixed with the specified amounts of solvent and the concentrate is diluted to the desired concentration with water.
# Vessels are filled with sand, active ingredient solution, an egg/larvae suspension of the southern root-knot nematode (Meloidogyne incognita) and lettuce seeds. The lettuce seeds germinate and the plants develop. The galls develop on the roots
# After 14 days, the nematicidal efficacy in % is determined by the formation of galls. 100% means that no galls have been found; 0% means that the number of galls on the treated plants corresponds to the untreated control.
# [3] = log P by HPLC (OECD Guideline 117), method [a] acidic range; format: physicochemical; details: for logP[a]: HPLC, method [a] acidic range; for chromatographic logP: reversed-phase C18 HPLC column, acidic range
# Method: as §1
# [a] The LC-MS determination in the acidic range is effected at pH 2.7 with 0.1% aqueous formic acid and acetonitrile (contains 0.1% formic acid) as eluents; linear gradient from 10% acetonitrile to 95% acetonitrile.
# [4] = tested on: Tetranychus urticae; assay: Tetranychus urticae spray test, OP-resistant (TETRUR); format: in vivo; details: application rate of 500 g/ha, after 6 days
# In short: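 Mortality as % efficacy (0% = no mites killed) read 6 days after spraying. Formulation: active ingredient in acetone/dimethylformamide plus emulsifier, diluted with emulsifier-containing water, applied to Phaseolus vulgaris leaf discs carrying every life stage of OP-resistant spider mites.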
# [5] = tested on: Boophilus microplus; assay: Boophilus microplus injection test (BOOPMI Inj); format: in vivo; details: application rate of 20 μg/animal, assessed after 7 days by laying of fertile eggs
# Method: Use Examples Boophilus microplus Injection Test (BOOPMI Inj) • Solvent: dimethyl sulphoxide
# To prepare an appropriate active ingredient formulation, 10 mg of active ingredient are mixed with 0.5 ml of solvent and the concentrate is diluted with solvent to the desired concentration.
# 1 μl of the active ingredient solution is injected into the abdomen of 5 engorged adult female cattle ticks (Boophilus microplus). The animals are transferred into dishes and kept in a climate-controlled room.
# The efficacy is assessed after 7 days by laying of fertile eggs. Eggs which are not visibly fertile are stored in a climate-controlled cabinet until the larvae hatch after about 42 days.
# An efficacy of 100% means that none of the ticks has laid any fertile eggs; 0% means that all the eggs are fertile.
# [6] = tested on: Phaedon cochleariae; assay: Phaedon cochleariae spray test (PHAECO); format: in vivo; details: application rate of 500 g/ha, after 7 days
# Method: Phaedon cochleariae—Spray Test (PHAECO)
# • Solvent: 78.0 parts by weight of acetone • 1.5 parts by weight of dimethylformamide • Emulsifier: 0.5 part by weight of alkylaryl polyglycol ether
# To produce an appropriate active ingredient formulation, 1 part by weight of active ingredient is mixed with the specified amounts of solvent and emulsifier, and the concentrate is diluted to the desired concentration with emulsifier-containing water.
# Discs of Chinese cabbage leaves (Brassica pekinensis) are sprayed with an active ingredient formulation of the desired concentration and, after drying, populated with larvae of the mustard beetle (Phaedon cochleariae).
# After 7 days, the efficacy in % is determined 100% means that all beetle larvae have been killed; 0% means that none of the beetle larvae have been killed.
Structure (SMILES),logP[b] [1],logP[a] [3],nematicidal efficacy [2] [%],efficacy [4] [%],further results
Cc1cc(F)c(-n2nnn(CC(F)(F)F)c2=O)cc1[S+]([O-])CC(F)(F)F (racemic) [Example 305],2.51,2.57,100,100,efficacy [5]: 100%
Cc1cc(F)c(-n2ncn(C3CC3)c2=O)cc1SCC(F)(F)F [Example 61],2.59,2.62,100,100,–
COc1nn(-c2ccc(Cl)c([S+]([O-])CC(F)(F)F)c2)c(=O)n1C (stereo not shown) [Example 99],2.52,2.54,90,90,efficacy [5]: 100%
COc1nn(-c2ccc(Br)c(SCC(F)(F)F)c2)c(=O)n1C1CC1 [Example 111],3.93,4.01,100,–,–
COc1nn(-c2ccc(C#N)c([S+]([O-])CC(F)(F)F)c2)c(=O)n1C1CC1 (stereo not shown) [Example 118],2.43,2.47,100,–,–
C=C(C)CCOc1nn(-c2ccc(C)c(SCC(F)(F)F)c2)c(=O)n1C1CC1 [Example 138],4.96,5.01,90,–,–
CCC(C)Oc1nn(-c2cc(SCC(F)(F)F)c(C)cc2F)c(=O)n1C1CC1 (stereo not shown) [Example 140],4.30,4.36,90,100,–
Cc1ccc(-n2nc(OCC3CC3)n(C)c2=O)cc1SCC(F)(F)F [Example 145],4.19,4.20,100,–,–
CCCCOc1nn(-c2cc([S+]([O-])CC(F)(F)F)c(C)cc2F)c(=O)n1C (stereo not shown) [Example 146],2.85,2.90,90,100,–
Cc1cc(F)c(-n2nc(OCC(C)(C)C)n(C)c2=O)cc1SCC(F)(F)F [Example 150],4.29,4.35,90,100,–
Cc1cc(F)c(-n2nc(C(F)(F)F)n(N(C)C)c2=O)cc1[S+]([O-])CC(F)(F)F (stereo not shown) [Example 213],3.09,3.16,90,90,–
Cc1cc(F)c(-n2nnn(CC(F)(F)F)c2=O)cc1SCC(F)(F)F [Example 304],3.48,3.61,100,100,–
Cc1cc(F)c(N2CC(OCc3ccccc3)=CC2=O)cc1[S+]([O-])CC(F)(F)F (stereo not shown) [Example 323],2.81,2.87,90,–,–
Cc1cc(F)c(-n2nc(OCC(Cl)(Cl)Cl)n(C)c2=O)cc1SCC(F)(F)F [Example 376],4.18,4.23,–,100,efficacy [6]: 100%
COc1nn(-c2cc(SCC(F)(F)F)c(C)cc2F)c(=O)n1CC1CC1 [Example 390],3.58,3.64,–,100,efficacy [5]: 100%; efficacy [6]: 100%
Cc1cc(F)c(-n2nc(OCC(Cl)(Cl)Cl)n(C)c2=O)cc1[S+]([O-])CC(F)(F)F (stereo not shown) [Example 392],3.09,3.13,–,90,efficacy [5]: 100%; efficacy [6]: 100%
CC(C)(C)COc1nn(-c2cc(SCC(F)(F)F)c(Cl)cc2F)c(=O)n1C1CC1 [Example 394],4.89,4.95,–,100,efficacy [6]: 83%
Cc1cc(F)c(-n2nnn(CC(F)(F)C(F)(F)F)c2=O)cc1SCC(F)(F)F [Example 444],4.04,4.09,90,100,–
"Cc1cc(F)c(-n2nnn(C)c2=S)cc1SCC(F)(F)F [Example 447, 1-{2-Fluoro-4-methyl-5-[(2,2,2-trifluoroethyl)sulphanyl]phenyl}-4-methyl-1,4-dihydro-5H-tetrazole-5-thione]",–,–,–,–,"chromatographic logP ([1]; reversed-phase C18 HPLC column, neutral range, pH 7.8): 3.49; chromatographic logP ([3]; pH 2.7, HPLC method [a], read-out: logP[a]): 3.51; chromatographic logP ([3]; pH 2.7, HPLC, pH 2.7, read-out: log P[a]): 3.51; pest or weed control at 500 g/ha ([4]; Tetranychus urticae, 144 h, read-out: efficacy): 100%; pest or weed control at 500 g/ha ([6]; Phaedon cochleariae, 168 h, read-out: efficacy): 100%"

# More lines, main results first:
logP[b] [1],logP[a] [3],Structure (SMILES),nematicidal efficacy [2] [%],efficacy [4] [%],further results
3.01,3.05,Cc1cc(F)c(-n2nnn(CC(F)(F)C(F)(F)F)c2=O)cc1[S+]([O-])CC(F)(F)F (racemic) [Example 446],100,90,–
2.91,2.97,Cc1cc(F)c(-n2nc(-c3ccc(Cl)cc3F)n(C)c2=O)cc1[S+]([O-])CC(F)(F)F (stereo not shown) [Example 39],90,90,–
3.96,4.06,Cc1cc(F)c(-n2nc(-c3ccc(Cl)cc3F)n(C)c2=O)cc1SCC(F)(F)F [Example 40],100,100,–
2.77,2.83,Cc1cc(F)c(-n2nc(OCC(F)(F)F)n(C3CC3)c2=O)cc1[S+]([O-])CC(F)(F)F (stereo not shown) [Example 102],100,100,efficacy [5]: 100%
3.42,3.46,COc1nn(-c2cc(SCC(F)(F)F)c(Cl)cc2Cl)c(=O)n1C1CC1 [Example 107],90,–,–
3.84,3.91,COc1nn(-c2ccc(Cl)c(SCC(F)(F)F)c2)c(=O)n1C1CC1 [Example 108],90,–,–
2.95,3.00,COc1nn(-c2ccc(Br)c([S+]([O-])CC(F)(F)F)c2)c(=O)n1C1CC1 (stereo not shown) [Example 110],100,–,–
4.56,4.60,Cc1ccc(-n2nc(OCC3CC3)n(C3CC3)c2=O)cc1SCC(F)(F)F [Example 135],90,–,–
3.60,3.67,C=C(C)CCOc1nn(-c2ccc(C)c([S+]([O-])CC(F)(F)F)c2)c(=O)n1C1CC1 (stereo not shown) [Example 139],90,–,–
4.96,5.01,CCC(C)Oc1nn(-c2ccc(C)c(SCC(F)(F)F)c2)c(=O)n1C1CC1 (stereo not shown) [Example 142],90,–,–
3.98,4.06,CC(CC(C)C)=Nn1c(C)nn(-c2cc(SCC(F)(F)F)c(C)cc2F)c1=O [Example 202],100,100,–
4.15,4.24,Cc1cc(F)c(-n2nc(C(F)(F)F)n(N(C)C)c2=O)cc1SCC(F)(F)F [Example 214],90,–,–
2.55,2.61,COC1=CC(=O)N(c2ccc(C(F)(F)F)c([S+]([O-])CC(F)(F)F)c2)C1 (stereo not shown) [Example 321],–,–,efficacy [5]: 100%; efficacy [6]: 100%
3.04,3.07,Cc1cc(F)c(-n2nc(Cl)n(C)c2=O)cc1SCC(F)(F)F [Example 435],–,100,efficacy [6]: 83%
1.98,2.00,Cc1cc(F)c(-n2nc(Cl)n(C)c2=O)cc1[S+]([O-])CC(F)(F)F (stereo not shown) [Example 437],–,90,efficacy [6]: 83%

# Source: patent US9981940B2, “Aryl sulfide derivatives and aryl sulfoxide derivatives as acaricides and insecticides” (BAYER CROPSCIENCE AKTIENGESELLSCHAFT, priority 2013, dated 2018)
